Test results from patent US6838477B2, “Lactacystin analogs” (President and Fellows of Harvard College, priority 1995, dated 2005).

Legend:
Papain = target: T1, Papain (Carica papaya, UniProt P00784); assay: Selectivity of protease inhibition: papain; type: biochemical; conditions: concentration not given
T1 sequence (P00784 134-345): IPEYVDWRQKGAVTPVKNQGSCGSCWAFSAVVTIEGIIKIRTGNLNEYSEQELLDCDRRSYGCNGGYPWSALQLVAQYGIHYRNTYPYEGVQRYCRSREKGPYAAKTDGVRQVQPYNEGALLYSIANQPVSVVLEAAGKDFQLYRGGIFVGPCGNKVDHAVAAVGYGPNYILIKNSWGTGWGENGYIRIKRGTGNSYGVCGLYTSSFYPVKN

[1] = target: T2, 20S proteasome trypsin-like activity (Bos taurus, UniProt Q2TBP0); assay: Kinetics of inhibition of 20S proteasome trypsin-like activity (Cbz-GGR-βNA); type: biochemical, bovine
T2 construct: from tissue; host or cells: bovine brain
Procedure: Experiments involving the proteasome were performed as follows: 20S proteasome (˜5 ng/μl) in 10 mM Tris-HCl, pH 7.5, 1 mM EDTA was incubated at 25° C. in the presence of lactacystin or lactacystin analogs in DMSO or MeOH [not exceeding 5% (v/v)]. Aliquots for fluorescence assay were removed at various times following addition of compound and diluted in 10 mM Tris-HCl, pH 7.5, 1 mM EDTA containing fluorogenic peptide substrates (100 μM final). Suc-LLVY-AMC, Cbz-GGR-βNA and […] (AMC=7-amido-4-methylcoumarin; βNA=β-naphthylamide) were used to assay for the chymotrypsin-like, trypsin-like and peptidylglutamyl-peptide hydrolyzing activities, respectively.
Fluorescent emission at 460 nm with excitation at 380 nm was measured for AMC-containing substrates, and emission at 410 nm with excitation at 335 nm was measured for βNA-containing substrates. The fluorescence assays were conducted at 25° C., each experiment was performed at least three times, and values represent mean±standard deviation.
The reversibility of the inhibitory effects was assessed by measuring residual peptidase activity after removal of excess inhibitor by extensive serial dilution/ultrafiltration.

Trypsin = target: T3, Trypsin (Bos taurus, UniProt P00760); assay: Selectivity of protease inhibition: trypsin; type: biochemical; conditions: concentration not given
T3 construct: gene PRSS1
T3 sequence (P00760 24-246): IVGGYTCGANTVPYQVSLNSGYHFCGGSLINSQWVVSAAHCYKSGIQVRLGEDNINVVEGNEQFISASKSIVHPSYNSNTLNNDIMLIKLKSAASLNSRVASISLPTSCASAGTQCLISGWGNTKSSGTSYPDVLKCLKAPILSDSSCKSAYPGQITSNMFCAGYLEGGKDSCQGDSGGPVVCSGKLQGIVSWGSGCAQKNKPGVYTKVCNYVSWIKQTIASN

Cathepsin B = Cathepsin B (Homo sapiens, UniProt P07858); assay: Selectivity of protease inhibition: cathepsin B; type: biochemical; conditions: concentration not given
α-Chymotrypsin = α-Chymotrypsin (Bos taurus, UniProt P00766, DEL14-15/DEL147-148); assay: Selectivity of protease inhibition: α-chymotrypsin; type: biochemical; conditions: concentration not given
Calpain I = target: T4, Calpain I (Homo sapiens, UniProt P07384); assay: Selectivity of protease inhibition: calpain I; type: biochemical; conditions: concentration not given
T4 sequence (P07384 1-714): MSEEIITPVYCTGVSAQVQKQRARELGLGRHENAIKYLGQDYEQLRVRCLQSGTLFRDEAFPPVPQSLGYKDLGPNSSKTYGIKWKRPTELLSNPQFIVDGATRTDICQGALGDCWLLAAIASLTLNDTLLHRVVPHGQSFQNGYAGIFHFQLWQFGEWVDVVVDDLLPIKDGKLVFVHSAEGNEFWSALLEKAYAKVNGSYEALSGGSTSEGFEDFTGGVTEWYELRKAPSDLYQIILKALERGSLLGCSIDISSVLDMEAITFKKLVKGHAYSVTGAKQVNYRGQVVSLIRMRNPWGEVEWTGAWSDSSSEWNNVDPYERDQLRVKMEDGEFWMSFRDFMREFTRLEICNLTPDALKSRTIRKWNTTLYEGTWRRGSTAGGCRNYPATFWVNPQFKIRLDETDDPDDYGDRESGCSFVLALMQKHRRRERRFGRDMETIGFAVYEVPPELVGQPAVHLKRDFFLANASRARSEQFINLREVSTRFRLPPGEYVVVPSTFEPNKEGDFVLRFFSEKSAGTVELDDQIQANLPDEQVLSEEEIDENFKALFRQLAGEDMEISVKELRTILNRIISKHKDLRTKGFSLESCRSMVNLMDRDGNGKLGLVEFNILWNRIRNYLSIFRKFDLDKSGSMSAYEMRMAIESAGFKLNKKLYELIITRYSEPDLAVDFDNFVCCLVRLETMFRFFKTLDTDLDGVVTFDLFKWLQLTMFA
T4 sequence (P04632 1-268 partner): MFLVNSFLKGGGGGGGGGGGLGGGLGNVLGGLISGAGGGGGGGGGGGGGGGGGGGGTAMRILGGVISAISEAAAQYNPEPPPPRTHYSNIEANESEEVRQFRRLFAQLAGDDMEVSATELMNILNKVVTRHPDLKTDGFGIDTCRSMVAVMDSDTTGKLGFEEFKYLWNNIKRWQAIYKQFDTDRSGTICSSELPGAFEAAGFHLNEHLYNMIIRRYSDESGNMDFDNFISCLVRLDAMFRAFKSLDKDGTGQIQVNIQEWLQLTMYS

p105 to p50 processing = assay: Proteasome dependent p105 to p50 processing in transfected COS cells (pulse-chase); type: cell-based, African green monkey; conditions: 1 h pretreatment, 2 hour chase
Procedure: COS cells were plated onto 100 mm dishes, then, with DEAE-Destran, either mock transfected, or transfected with 3 μg of pcDNA plasmid containing the human p105 cDNA. Forty-eight hrs after transfection, cells were pretreated for 1 hour with 0.5% DMSO, 50 μM calpain inhibitor II, 50 μM MG132, or 10 μM β-lactone. Cells were then pulse labelled with 250 uCi/plate of ^35S-methionine/cysteine for 15 minutes, and either harvested immediately or followed by a 2 hour chase with excess unlabelled methionine and cysteine. Cells were then lysed with SDS/Tris, and proteins were immunoprecipitated with anti-p50 antibodies (recognize the N-terminal half of the p105 protein). These proteins were then separated on a 10% SDS-polyacrylamide gel, which was then fixed, dried, and exposed to autoradiographic film.

## CC(C)[C@H](O)[C@@]12NC(=O)[C@H](C)[C@@H]1OC2=O [β-Lactone, clasto-lactacystin β-lactone]
Papain
  inhibition of papain activity: do not inhibit
[1]; compound 5 μM, 25° C.
  κassoc = κobs/[I], Trypsin-like activity (Cbz-GGR-βNA): 208 ± 21 s^−1M^−1
[1]; relative to lactacystin
  trypsin-like activity inhibited faster than by lactacystin: 15-20 times
[1]; residual activity after removal of excess inhibitor by serial dilution/ultrafiltration
  reversibility of inhibition of trypsin-like activity: irreversibly
Trypsin
  inhibition of trypsin activity: do not inhibit
Cathepsin B
  inhibition of cathepsin activity: do not inhibit
α-Chymotrypsin
  inhibition of α-chymotrypsin activity: do not inhibit
Calpain I
  inhibition of calpain I activity: do not inhibit
p105 to p50 processing; 10 μM
  processing of p105 to p50 (level of p50): only a slight effect
p105 to p50 processing; 50 μM
  processing of p105 to p50 (appearance of p50): complete inhibition
